Data from article PMC8515607 (ACS Omega, 2021).
Read-outs that look alike come from different tables or passages of the source.

Key:
[1] = test system: human colon adenocarcinoma cell lines; conditions: cited from earlier work
[2] = test system: A549; set-up: method as in PMID 32295119; conditions: amide directly on C7; cited from earlier work
[3] = test system: MCF-7; set-up: method as in PMID 32295119; conditions: amide directly on C7; cited from earlier work
[4] = test system: LoVo; set-up: method as in PMID 32295119; conditions: cited from earlier work
[5] = test system: A549 and MCF7 cells; set-up: method as in PMID 32295119; conditions: read-out: IC50 A549 and MCF7 of 7-amide (span); amide directly on C7; cited from earlier work
[6] = test system: A549; assay: cells; assay type: cell-based, human; conditions: for A549 SI: selectivity index = IC50 BALB/3T3 / IC50 A549
From the text: (§1) The A549 and MCF7 cell lines were purchased from the European Collection of Authenticated Cell Cultures (ECACC, Salisbury, U.K., 86012804 and 86012803). The LoVo cell line was purchased from the American Type Culture Collection (CCL-229, ATCC, Manassas, VA), and LoVo/DX by courtesy of Prof. E. Borowski (Technical University of Gdańsk, Gdańsk, Poland). The BALB/3T3 cell line was purchased from the American Type Culture Collection (CCL-163, ATCC, Manassas, VA). All of the cell lines are maintained in the Institute of Immunology and Experimental Therapy (IIET), Wroclaw, Poland.
(§2) A549 cells were cultured in a mixture of OptiMEM and Roswell Park Memorial Institute (RPMI) 1640 (1:1) medium (IIET, Wroclaw, Poland), supplemented with 10% fetal bovine serum HyClone (GE Healthcare) and 2 mM L-glutamine (Sigma-Aldrich, Germany). MCF7 cells were cultured in a mixture of Eagle’s medium (IIET, Wroclaw, Poland), supplemented with 10% fetal bovine serum, 2 mM L-glutamine, and insulin (Sigma-Aldrich, Germany). LoVo and LoVo/DX cells were cultured in F12K medium (Corning), supplemented with 10% fetal bovine serum HyClone (GE Healthcare) and 0.1 μg/mL doxorubicin (Accord) for LoVo/DX. BALB/3T3 fibroblasts were cultured in Dulbecco’s medium (Gibco), supplemented with 10% fetal bovine serum (GE Healthcare) and 2 mM L-glutamine (Sigma-Aldrich, Germany). All culture media contained antibiotics: 100 U/mL penicillin (Polfa-Tarchomin, Poland) and 0.1 mg/mL streptomycin (Sigma-Aldrich, Germany). All cell lines were cultured during entire experiment in humid atmosphere at 37 °C and 5% CO2.
(§3) All cell lines were exposed to each tested agent at different concentrations in the range 100–0.00001 μg/mL for 72 h. The cells were also exposed to the reference drug cisplatin (Teva Pharmaceuticals, Poland) and doxorubicin (Accord Healthcare Limited, U.K.). Additionally, all cell lines were exposed to dimethyl sulfoxide (DMSO) (solvent used for tested compounds) (POCh, Poland) at concentrations corresponding to those present in tested agents dilutions. After 72 h, sulforhodamine B (SRB) assay was performed.[57]
(§4) After 72 h of incubation with the tested compounds, the cells were fixed in situ by gently adding cold 50% trichloroacetic acid (TCA) (POCh, Poland) and were incubated at room temperature for 1 h. Then, the wells were washed four times with water and air-dried. Next, 0.1% solution of sulforhodamine B (Sigma-Aldrich, Germany) in 1% acetic acid (POCh, Poland) was added to each well and the plates were incubated at room temperature for 0.5 h. After incubation time, unbound dye was removed by washing plates four times with 1% acetic acid, whereas stain bound to cells was solubilized with 10 mM Tris base (Sigma-Aldrich, Germany). Absorbance of each solution was read at Synergy H4 Hybrid Multi-Mode Microplate Reader (BioTek Instruments) at the 540 nm wavelength.
(§5) IC50 values were calculated in Excel sheet using formulas adapted by Mateusz Psurski fromCheburator 0.4, Dmitry Nevozhay software (version 1.2.0 software by Dmitry Nevozhay, 2004–2014, http://www.cheburator.nevozhay.com, freely available) for each experiment.[58] Compounds at each concentration were tested in triplicate in a single experiment, and each experiment was repeated at least three times independently.

[7] = test system: LoVo/DX; assay: cells; assay type: cell-based, human; conditions: for LoVo/DX RI: resistance index = IC50 LoVo/DX / IC50 LoVo; for LoVo/DX SI: selectivity index = IC50 BALB/3T3 / IC50 LoVo/DX
From the text: as §1, §2, §3, §4, §5

[8] = test system: LoVo; assay: cells; assay type: cell-based, human; conditions: for IC50: Homo sapiens, LoVo, 72 h, read-out: LoVo IC50 (nM); for LoVo SI: selectivity index = IC50 BALB/3T3 / IC50 LoVo
From the text: as §1, §2, §3, §4, §5

[9] = test system: MCF-7; assay: cells; assay type: cell-based, human; conditions: for IC50: Homo sapiens, MCF7, 72 h, read-out: MCF-7 IC50 (nM); for MCF-7 SI: selectivity index = IC50 BALB/3T3 / IC50 MCF-7
From the text: as §1, §2, §3, §4, §5

[10] = test system: BALB/3T3; assay: In vitro antiproliferative activity, SRB assay, normal fibroblasts BALB/3T3; assay type: cell-based; conditions: Mus musculus, BALB/3T3, normal murine embryonic fibroblasts, 72 h, mean ± SD
From the text: as §1, §2, §3, §4, §5

[11] = test system: all cells used, both cancerous and normal; assay: Antiproliferative activity, values quoted jointly for all cell lines tested; assay type: cell-based
From the text: as §1, with “Poland. […]” for “Poland.”
After 72 h of incubation with the tested compounds, the cells were fixed in situ by gently adding cold 50% trichloroacetic acid (TCA) (POCh, Poland) and were incubated at room temperature for 1 h. […] Absorbance of each solution was read at Synergy H4 Hybrid Multi-Mode Microplate Reader (BioTek Instruments) at the 540 nm wavelength.
IC50 values were calculated in Excel sheet using formulas adapted by Mateusz Psurski fromCheburator 0.4, Dmitry Nevozhay software (version 1.2.0 software by Dmitry Nevozhay, 2004–2014, http://www.cheburator.nevozhay.com, freely available) for each experiment.[58] […]

[12] = test system: A549, MCF-7, and LoVo cells; assay: Antiproliferative activity, values quoted jointly for three tumor lines; assay type: cell-based, human; conditions: summary of Table 1; for IC50: Homo sapiens, read-out: IC50 against A549, MCF-7, and LoVo cells (span over the three lines)
From the text: as §1, §2, §3, §4, §5

[13] = Homo sapiens, A549, 72 h, read-out: A549 IC50 (nM), 72 h exposure, SRB, mean ± SD
[14] = Homo sapiens, LoVo/DX, 72 h, read-out: LoVo/DX IC50 (nM), 72 h exposure, SRB, mean ± SD
[15] = read-out: LoVo/DX IC50, 72 h exposure, SRB, mean ± SD

CNc1ccc2c(cc1=O)C(NCc1ccccc1Cl)CCc1cc(OC)c(OC)c(OC)c1-2 (stereo not drawn) [7-N-(2-chlorobenzyl)-10-methylaminocolchcine]
calculated selectivity coefficients [1]: around 90

CCCCCCCCCCCCCCCC(=O)N[C@H]1CCc2cc(OC)c(OC)c(OC)c2-c2ccc(NC)c(=O)cc21 [7-palmitamide]
SI A549 of 7-amide [2]: 0.9
SI MCF7 of 7-amide [3]: 1.2
SI LoVo of 7-amide ([4]; amide directly on C7): 8.8
IC50 ([4]; read-out: IC50 LoVo of 7-amide, amide directly on C7 of 10-N-methylaminocolchicine): 62 nM
IC50 [5]: 460 to 620 nM

CNc1ccc2c(cc1=O)[C@@H](N=[N+]=[N-])CCc1cc(OC)c(OC)c(OC)c1-2 [Compound 4, 7-azido-10-N-methylaminocolchicine]
IC50 [6, 13]: 1.4 ± 0.5 nM
A549 SI [6]: 1.5
IC50 [7, 14]: 1.7 ± 0.6 nM
LoVo/DX RI [7]: 1.5
LoVo/DX SI [7]: 1.2
IC50 [8]: 1.1 ± 0.5 nM
LoVo SI [8]: 1.9
IC50 [9]: 1.5 ± 0.3 nM
MCF-7 SI [9]: 1.4
IC50 [10]: 2.1 ± 1.2 nM
SI (selectivity coefficients, all cancer lines) [11]: < 2
IC50 ([11]; cancerous and normal lines, read-out: IC50 against all cells used (span)): 1.1 to 2.1 nM

CNc1ccc2c(cc1=O)[C@@H](n1cc(C(=O)OC)nn1)CCc1cc(OC)c(OC)c(OC)c1-2 [Compound 18]
IC50 [6, 13]: 13 ± 2.3 nM
A549 SI [6]: 1.5
IC50 [7, 14]: 280 ± 77 nM
LoVo/DX RI [7]: 23
LoVo/DX SI [7]: 0.1
IC50 [8]: 12 ± 4.3 nM
LoVo SI [8]: 1.7
IC50 [9]: 12 ± 2.7 nM
MCF-7 SI [9]: 1.7
IC50 [10]: 20 ± 13 nM
IC50 [12]: 10 to 25 nM

CCOC(=O)c1cn([C@H]2CCc3cc(OC)c(OC)c(OC)c3-c3ccc(NC)c(=O)cc32)nn1 [Compound 19]
IC50 [6, 13]: 17 ± 0.8 nM
A549 SI [6]: 1.4
IC50 [7, 14]: 220 ± 23 nM
LoVo/DX RI [7]: 17
LoVo/DX SI [7]: 0.1
IC50 [8]: 13 ± 3.5 nM
LoVo SI [8]: 1.8
IC50 [9]: 11 ± 3.7 nM
IC50 [10]: 24 ± 11 nM
IC50 [12]: 10 to 25 nM

CNc1ccc2c(cc1=O)[C@@H](n1cc(C(=O)OCc3ccc(F)cc3)nn1)CCc1cc(OC)c(OC)c(OC)c1-2 [Compound 21]
IC50 [6, 13]: 21 ± 7.7 nM
A549 SI [6]: 1.2
IC50 [7, 14]: 530 ± 110 nM
LoVo/DX RI [7]: 25
LoVo/DX SI [7]: 0.1
IC50 [8]: 21 ± 6.4 nM
LoVo SI [8]: 1.2
IC50 [9]: 21 ± 8 nM
MCF-7 SI [9]: 1.2
IC50 [10]: 25 ± 5.6 nM
IC50 [12]: 10 to 25 nM

CNc1ccc2c(cc1=O)[C@@H](n1cc(CNC(=O)C(Cl)Cl)nn1)CCc1cc(OC)c(OC)c(OC)c1-2 [Compound 31]
IC50 [6, 13]: 3.3 ± 1.1 nM
A549 SI [6]: 3.0
IC50 [7, 14]: ≤ 1000 nM
IC50 [7, 15]: 830 ± 220 nM
LoVo/DX RI [7]: 270
LoVo/DX SI [7]: <0.1
IC50 [8]: 3.1 ± 1.1 nM
LoVo SI [8]: 3.2
IC50 [9]: 3 ± 1.5 nM
MCF-7 SI [9]: 3.3
IC50 [10]: 9.9 ± 3 nM
IC50 [12]: 2.7 to 6.3 nM

CNc1ccc2c(cc1=O)[C@@H](n1cc(CNC(=O)CCCCCl)nn1)CCc1cc(OC)c(OC)c(OC)c1-2 [Compound 32]
IC50 [6, 13]: 4.4 ± 1.3 nM
A549 SI [6]: 5.0
IC50 [7, 14]: 2800 ± 200 nM
LoVo/DX RI [7]: 560
LoVo/DX SI [7]: <0.1
IC50 [8]: 5 ± 0.4 nM
LoVo SI [8]: 4.4
IC50 [9]: 2.7 ± 1.1 nM
MCF-7 SI [9]: 8.1
IC50 [10]: 22 ± 5.6 nM
IC50 [12]: 2.7 to 6.3 nM

CNc1ccc2c(cc1=O)[C@@H](n1cc(CNC(=O)c3ccccc3Cl)nn1)CCc1cc(OC)c(OC)c(OC)c1-2 [Compound 35]
IC50 [6, 13]: 5.7 ± 2 nM
A549 SI [6]: 2.1
IC50 [7, 14]: ≤ 1000 nM
IC50 [7, 15]: 1000 ± 97 nM
LoVo/DX RI [7]: 160
LoVo/DX SI [7]: <0.1
IC50 [8]: 6.3 ± 3.1 nM
LoVo SI [8]: 1.9
IC50 [9]: 3.8 ± 0.4 nM
MCF-7 SI [9]: 3.2
IC50 [10]: 12 ± 2.9 nM
IC50 [12]: 2.7 to 6.3 nM

C=CCOC(=O)NCc1cn([C@H]2CCc3cc(OC)c(OC)c(OC)c3-c3ccc(NC)c(=O)cc32)nn1 [Compound 39]
IC50 [6, 13]: 3.3 ± 0.5 nM
A549 SI [6]: 2.8
IC50 [7, 14]: 440 ± 64 nM
LoVo/DX RI [7]: 100
LoVo/DX SI [7]: <0.1
IC50 [8]: 4.3 ± 0.6 nM
LoVo SI [8]: 2.1
IC50 [9]: 2.6 ± 0.5 nM
MCF-7 SI [9]: 3.5
IC50 [10]: 9.1 ± 2.6 nM
SI for A549, MCF-7, and LoVo cells (span) [12]: 2.1–3.9

CNc1ccc2c(cc1=O)[C@@H](n1cc(CNC(=O)OCC(C)C)nn1)CCc1cc(OC)c(OC)c(OC)c1-2 [Compound 40]
IC50 [6, 13]: 1.2 to 1.9 nM
IC50 ([6]; read-out: A549 IC50, 72 h exposure, SRB, mean ± SD): 1.2 ± 0.1 nM
A549 SI [6]: 3.3
IC50 [7, 14]: 310 ± 61 nM
LoVo/DX RI [7]: 180
LoVo/DX SI [7]: <0.1
IC50 [8]: 1.7 ± 0.2 nM
LoVo SI [8]: 2.3
IC50 [9]: 1.2 ± 0.3 nM
MCF-7 SI [9]: 3.3
IC50 [10]: 3.9 ± 0.2 nM
IC50 [12]: 1.2 to 1.7 nM
SI for A549, MCF-7, and LoVo cells (span) [12]: 2.1–3.9

CNc1ccc2c(cc1=O)[C@@H](n1cc(CNC(=O)Oc3ccccc3)nn1)CCc1cc(OC)c(OC)c(OC)c1-2 [Compound 43]
IC50 [6, 13]: 4.1 ± 0.6 nM
A549 SI [6]: 2.7
IC50 [7, 14]: 920 ± 150 nM
LoVo/DX RI [7]: 200
LoVo/DX SI [7]: <0.1
IC50 [8]: 4.7 ± 1.1 nM
LoVo SI [8]: 2.3
IC50 [9]: 2.8 ± 1.2 nM
MCF-7 SI [9]: 3.9
IC50 [10]: 11 ± 0.4 nM
SI for A549, MCF-7, and LoVo cells (span) [12]: 2.1–3.9
